Measured values from ChEMBL document CHEMBL3044896, “A facile route for the synthesis 1,4-disubstituted tetrazolone derivatives and evaluation of their antimicrobial activity” (2013).

Legend:
Bacillus subtilis [1] = assay: Antibacterial activity against Bacillus subtilis ATCC 6633 at 100 ug/ml after 18 to 24 hr by agar well diffusion method; assay type: functional; settings: read-out: IZ
Escherichia coli [2] = assay: Antibacterial activity against Escherichia coli ATCC 2343 at 100 ug/ml after 18 to 24 hr by agar well diffusion method; assay type: functional; settings: read-out: IZ
Aspergillus niger [3] = assay: Antifungal activity against Aspergillus niger at 100 ug/ml after 48 hr by agar well diffusion method; assay type: functional; settings: read-out: IZ
Klebsiella aerogenes [4] = assay: Antibacterial activity against Enterobacter aerogenes NCIM 5139 at 100 ug/ml after 18 to 24 hr by agar well diffusion method; assay type: functional; settings: read-out: IZ
Staphylococcus aureus [5] = assay: Antibacterial activity against Staphylococcus aureus ATCC 29737 at 100 ug/ml after 18 to 24 hr by agar well diffusion method; assay type: functional; settings: read-out: IZ
Candida albicans [6] = assay: Antifungal activity against Candida albicans at 100 ug/ml after 48 hr by agar well diffusion method; assay type: functional; settings: read-out: IZ
Escherichia coli [7] = assay: microbe, parasite or virus in culture; settings: ATCC 2343, read-out: IZ
Description: Antibacterial activity against Escherichia coli ATCC 2343 at 40 ug/ml after 18 to 24 hr by agar well diffusion method

Klebsiella aerogenes [8] = assay: Antibacterial activity against Enterobacter aerogenes NCIM 5139 at 40 ug/ml after 18 to 24 hr by agar well diffusion method; assay type: functional; settings: read-out: IZ
Bacillus subtilis [9] = assay: microbe, parasite or virus in culture; settings: ATCC 6633, read-out: IZ
Description: Antibacterial activity against Bacillus subtilis ATCC 6633 at 40 ug/ml after 18 to 24 hr by agar well diffusion method

Staphylococcus aureus [10] = assay: microbe, parasite or virus in culture; settings: ATCC 29737, read-out: IZ
Description: Antibacterial activity against Staphylococcus aureus ATCC 29737 at 40 ug/ml after 18 to 24 hr by agar well diffusion method

Aspergillus niger [11] = assay: Antifungal activity against Aspergillus niger at 30 ug/ml after 48 hr by agar well diffusion method; assay type: functional; settings: read-out: IZ
Candida albicans [12] = assay: Antifungal activity against Candida albicans at 30 ug/ml after 48 hr by agar well diffusion method; assay type: functional; settings: read-out: IZ

Row | SMILES | zone of inhibition at 100 µg/mL (Bacillus subtilis [1]) | zone of inhibition at 100 µg/mL (Escherichia coli [2]) | zone of inhibition at 100 µg/mL (Aspergillus niger [3]) | zone of inhibition at 100 µg/mL (Klebsiella aerogenes [4]) | zone of inhibition at 100 µg/mL (Staphylococcus aureus [5]) | zone of inhibition at 100 µg/mL (Candida albicans [6]) | zone of inhibition at 40 µg/mL (Escherichia coli [7]) | zone of inhibition at 40 µg/mL (Klebsiella aerogenes [8]) | zone of inhibition at 40 µg/mL (Bacillus subtilis [9]) | zone of inhibition at 40 µg/mL (Staphylococcus aureus [10]) | zone of inhibition at 30 µg/mL (Aspergillus niger [11]) | zone of inhibition at 30 µg/mL (Candida albicans [12])
1 | CCOC(=O)/C(=C/c1ccc(Cl)cc1)Cn1nnn(-c2ccc(C(F)(F)F)cc2)c1=O | 15 mm | 9 mm | 9 mm | 11 mm | 15 mm |  |  |  |  |  |  | 
2 | COC(=O)/C(=C/c1ccc([N+](=O)[O-])cc1)Cn1nnn(-c2ccc(OC)cc2)c1=O | 10 mm | 6 mm |  | 8 mm | 12 mm |  |  |  |  |  |  | 
3 | COC(=O)/C(=C/c1ccc([N+](=O)[O-])cc1)Cn1nnn(-c2ccc(C(F)(F)F)cc2)c1=O | 10 mm | 6 mm | 11 mm | 8 mm | 12 mm | 12 mm |  |  |  |  |  | 
4 | COC(=O)/C(=C/c1ccc(OC)cc1)Cn1nnn(-c2ccc(OC)cc2)c1=O | 16 mm |  | 16 mm |  | 17 mm | 17 mm |  |  |  |  |  | 
5 | COC(=O)/C(=C/c1ccc(OC)c(OC)c1)Cn1nnn(-c2ccc(OC)cc2)c1=O |  | 9 mm |  | 17 mm |  |  |  |  |  |  |  | 
6 | COc1ccc(-n2nnn(C/C(C#N)=C/c3ccccc3)c2=O)cc1 | 12 mm | 7 mm | 6 mm | 11 mm | 17 mm | 9 mm |  |  |  |  |  | 
7 | N#C/C(=C\c1ccccc1)Cn1nnn(-c2ccc(C(F)(F)F)cc2)c1=O | 23 mm | 9 mm | 16 mm | 19 mm | 22 mm | 15 mm |  |  |  |  |  | 
8 | N#C/C(=C\c1ccc(Cl)cc1)Cn1nnn(-c2ccc(C(F)(F)F)cc2)c1=O | 7 mm | 7 mm | 5 mm | 14 mm | 13 mm |  |  |  |  |  |  | 
9 | Cc1ccc(/C=C(\C#N)Cn2nnn(-c3ccccc3)c2=O)cc1 | 16 mm | 8 mm | 4 mm | 14 mm | 17 mm | 7 mm |  |  |  |  |  | 
10 | COc1ccc(-n2nnn(C/C(C#N)=C/c3ccc(C)cc3)c2=O)cc1 | 16 mm | 14 mm | 15 mm | 16 mm | 19 mm | 19 mm |  |  |  |  |  | 
11 | Cc1ccc(/C=C(\C#N)Cn2nnn(-c3ccc(C(F)(F)F)cc3)c2=O)cc1 |  | 3 mm |  | 6 mm |  |  |  |  |  |  |  | 
12 | COc1ccc(/C=C(\C#N)Cn2nnn(-c3ccc(OC)cc3)c2=O)cc1 | 18 mm | 14 mm | 14 mm | 19 mm | 21 mm | 16 mm |  |  |  |  |  | 
13 | COc1ccc(/C=C(\C#N)Cn2nnn(-c3ccc(C(F)(F)F)cc3)c2=O)cc1 | 11 mm | 5 mm | 11 mm | 12 mm | 16 mm | 16 mm |  |  |  |  |  | 
14 | COc1ccc(-n2nnn(C/C(C#N)=C/c3ccc(OC)c(OC)c3)c2=O)cc1 | 11 mm | 7 mm |  | 16 mm | 21 mm | 4 mm |  |  |  |  |  | 
15 | COc1ccc(/C=C(\C#N)Cn2nnn(-c3ccc(C(F)(F)F)cc3)c2=O)cc1OC | 14 mm | 7 mm | 10 mm | 12 mm | 16 mm | 16 mm |  |  |  |  |  | 
16 | COC(=O)/C(=C/c1ccc(F)cc1)Cn1nnn(-c2ccccc2)c1=O | 6 mm | 4 mm | 3 mm | 3 mm | 7 mm |  |  |  |  |  |  | 
17 | COC(=O)/C(=C/c1ccc(F)cc1)Cn1nnn(-c2ccc(OC)cc2)c1=O | 19 mm | 18 mm | 18 mm | 15 mm | 15 mm | 17 mm |  |  |  |  |  | 
18 | COC(=O)/C(=C/c1ccc(Cl)cc1)Cn1nnn(-c2ccc(OC)cc2)c1=O | 14 mm | 5 mm |  | 6 mm | 7 mm | 5 mm |  |  |  |  |  | 
19 | CCOC(=O)/C(=C/c1ccc(Cl)cc1)Cn1nnn(-c2ccc(OC)cc2)c1=O | 20 mm |  | 11 mm |  | 22 mm | 12 mm |  |  |  |  |  | 
20 | CCOC(=O)/C(=C/c1ccc(Cl)cc1)Cn1nnn(-c2ccccc2)c1=O | 20 mm | 19 mm | 16 mm | 17 mm | 23 mm | 18 mm |  |  |  |  |  | 
21 | O=C(O)c1cn(C2CC2)c2cc(N3CCNCC3)c(F)cc2c1=O [CIPROFLOXACIN] |  |  |  |  |  |  | 18 mm | 24 mm | 10 mm | 22 mm |  | 
22 | CCC(C)n1ncn(-c2ccc(N3CCN(c4ccc(OCC5COC(Cn6cncn6)(c6ccc(Cl)cc6Cl)O5)cc4)CC3)cc2)c1=O (configuration not stated) [ITRACONAZOLE] |  |  |  |  |  |  |  |  |  |  | 17 mm | 20 mm
